{
  "source": "paper PMC5748433",
  "about": "“Study on the effect of EMD386088, a 5-HT6 receptor partial agonist, in enhancing the anti-immobility action of some antidepressants in rats” (Naunyn-Schmiedeberg's Archives of Pharmacology, 2017)",
  "key": {"[1]": {"assay": "Pharmacokinetic study in rats, plasma (LC/MS/MS, non-compartmental)", "assay_type": "in vivo, rat", "conditions": "for Vd/F / AUC(0-t) / CL/F / Cmax / MRT / half-life / Tmax: rat, plasma", "description": "(§1) Blood samples were collected at 0 min (predose), 5 min, 15 min, 30 min, 60 min, 120 min, and 240 min after injections. The blood was collected from right ventricle under anesthesia using a mixture of ketamine (50 mg/kg)/xylasine (8 mg/kg) in the ratio of 3:1, and 0.025 mL of a mixture for 10 g body weight was injected i.p. 10 min before planned blood collection. Blood and brain samples were collected under general anesthesia induced by i.p. injections of ketamine (50 mg/kg)/xylasine (8 mg/kg). The blood samples were taken into heparinized tubes, immediately centrifuged at 3500 rpm for 10 min, and plasma was collected. After the blood was drawn, the rat’s spinal cord was cut and the cerebral tissue was removed, and after dissection washed in PBS saline. The brain and plasma samples were immediately frozen at − 80 °C for LC/MS/MS analysis.\n(§2) Pharmacokinetic parameters were calculated by a non-compartmental approach from the average concentration values, using Phoenix WinNonlin software (Certara, Princeton, NJ 08540 USA). First order elimination rate constant (λz) was calculated by linear regression of time versus log concentration.\n(§3) The quantification of studied compounds in plasma and brain samples was done using HPLC Agilent 1100 system (Agilent Technologies, Waldbronn, Germany) coupled to the triple quadrupole mass spectrometer API 2000 (ABSciex, Framingham, Massachusetts, USA) equipped with an electrospray ion source. After preparation, the samples were injected (20 μL) onto XBridge C18 (2.1 mm × 30 mm, 3.5 μm, Waters, Milford, Massachusetts, USA) analytical column. The mobile phase consisted of ACN with 0.1% formic acid (A) and water with 0.1% formic acid (B) were delivered in gradient elution started with 90% of eluent B, increasing during 2 min to 90% of eluent A, maintained to 3 min, and then returned during 5 min to 90% of eluent B, and maintained 90% of eluent B during 5 min at a flow rate of 300 μL/min. The total time of analysis was 15 min. Electrospray ionization process was performed in positive ionization and the data acquisition was carried out in multiple reaction monitoring mode (MRM) for EMD386088 and its internal standard (nebivolol). The ion spray source settings were as follows: spray voltage: 5 kV, heater temperature: 350 °C, curtain gas: 15 psi, source gas 1: 35 psi, source gas 2: 10 psi. The ions measured were m/z 247.3 (Q1) and m/z 168.2 (Q3) for EMD386088, and m/z 406.2 (Q1) and m/z 151.1 (Q3) for IS.\n(§4) A sample volume of 50 μL of plasma or brain homogenate was transferred into the clean Eppendorf tube and spiked with 5 μL of IS solution (1 μg/mL) obtaining the final concentration of 100 ng/mL. After 5 min of mixing (1500 rpm), proteins were precipitated using 150 μL ACN. After 10 min of samples shaking (1500 rpm), the incubation step was performed (10 min, 4 °C). Next, samples were centrifuged (10,000 rpm, 10 min, 4 °C) and the supernatant was transferred into chromatographic vial for LC/MS/MS analysis. The brain homogenate was prepared maintaining the tissue: phosphate-buffered saline (PBS) at a ratio of 1:5. The homogenization was carried out employing IKA® T10 Basic ULTRA-TURRAX disperser (IKA Werke GmbH & Co. KG, Staufen, Germany). After homogenization, 50 μL of sample was collected for further preparation. All samples were stored on ice during the preparation process."}, "[2]": {"assay": "Distribution of EMD386088 in rats' brain (LC/MS/MS, non-compartmental)", "assay_type": "in vivo, rat", "description": "as §1, §2, §3, §4"}, "[3]": {"test_system": "α1-adrenoceptors", "set-up": "method as in Jastrzębska-Więsek et al. [2013]", "conditions": "ref Jastrzębska-Więsek et al. [2013]; cited from earlier work"}, "[4]": {"test_system": "GABAA", "set-up": "method as in Jastrzębska-Więsek et al. [2013]", "conditions": "ref Jastrzębska-Więsek et al. [2013]; cited from earlier work"}, "[5]": {"test_system": "dopamine transporter (DAT)", "set-up": "method as in Jastrzębska-Więsek et al. [2016]", "conditions": "functional in vitro study; ref Jastrzębska-Więsek et al. [2016]; cited from earlier work"}, "[6]": {"conditions": "ip, 2.5 mg/kg, rat plasma, EMD386088 2.5 mg/kg i.p. alone"}, "[7]": {"conditions": "ip, 2.5 mg/kg, rat plasma, EMD386088 2.5 mg/kg i.p. jointly with imipramine (IMI) 15 mg/kg i.p."}, "[8]": {"conditions": "ip, 5 mg/kg, rat plasma, EMD386088 5 mg/kg i.p. alone"}, "[9]": {"conditions": "rats, EMD386088 with imipramine vs alone"}, "[10]": {"conditions": "rat brain, EMD386088 2.5 mg/kg i.p. jointly with imipramine (IMI) 15 mg/kg i.p."}, "[11]": {"conditions": "rat, brain, ip, 2.5 mg/kg, rat brain, EMD386088 2.5 mg/kg i.p. alone"}, "[12]": {"conditions": "rat, brain, ip, 2.5 mg/kg, rat brain, EMD386088 2.5 mg/kg i.p. jointly with imipramine (IMI) 15 mg/kg i.p."}, "[13]": {"conditions": "rat, brain, ip, 5 mg/kg, rat brain, EMD386088 5 mg/kg i.p. alone"}},
  "note": "Read-outs that look alike come from different tables or passages of the source.",
  "data": [
    {"smiles": "Cc1[nH]c2ccc(Cl)cc2c1C1=CCNCC1.Cl", "note": "[EMD386088, 5-chloro-2-methyl-3-(1,2,3,6-tetrahydro-4-pyridinyl)-1H-indole hydrochloride]", "values": [
      {"measurement": "Vd/F", "setting": "[1]; intraperitoneal, rats, EMD386088 2.5 mg/kg coadministered with imipramine 15 mg/kg, read-out: volume of distribution V d/F", "result": 32.2, "unit": "L/kg"},
      {"measurement": "AUC(0-t)", "setting": "[1]; [6]", "result": 0.0368, "unit": "µg·h/mL"},
      {"measurement": "CL/F", "setting": "[1]; [6]", "result": 63.2, "unit": "L/h/kg"},
      {"measurement": "Cmax", "setting": "[1]; [6]", "result": 0.0229, "unit": "µg/mL"},
      {"measurement": "MRT", "setting": "[1]; [6]", "result": 1.31, "unit": "h"},
      {"measurement": "Vd/F", "setting": "[1]; ip, 2.5 mg/kg, rat plasma, EMD386088 2.5 mg/kg i.p. alone, read-out: V d/F", "result": 102, "unit": "L/kg"},
      {"measurement": "half-life", "setting": "[1]; ip, 2.5 mg/kg, rat plasma, EMD386088 2.5 mg/kg i.p. alone, read-out: t1/2", "result": 1.12, "unit": "h"},
      {"measurement": "Tmax", "setting": "[1]; ip, 2.5 mg/kg, rat plasma, EMD386088 2.5 mg/kg i.p. alone, read-out: t max (converted)", "result": 0.0833, "unit": "h"},
      {"measurement": "AUC(0-t)", "setting": "[1]; [7]", "result": 0.125, "unit": "µg·h/mL"},
      {"measurement": "CL/F", "setting": "[1]; [7]", "result": 17.4, "unit": "L/h/kg"},
      {"measurement": "Cmax", "setting": "[1]; [7]", "result": 0.049, "unit": "µg/mL"},
      {"measurement": "MRT", "setting": "[1]; [7]", "result": 1.55, "unit": "h"},
      {"measurement": "Vd/F", "setting": "[1]; ip, 2.5 mg/kg, rat plasma, EMD386088 2.5 mg/kg i.p. jointly with imipramine (IMI) 15 mg/kg i.p., read-out: V d/F", "result": 32.2, "unit": "L/kg"},
      {"measurement": "half-life", "setting": "[1]; ip, 2.5 mg/kg, rat plasma, EMD386088 2.5 mg/kg i.p. jointly with imipramine (IMI) 15 mg/kg i.p., read-out: t1/2", "result": 1.28, "unit": "h"},
      {"measurement": "Tmax", "setting": "[1]; ip, 2.5 mg/kg, rat plasma, EMD386088 2.5 mg/kg i.p. jointly with imipramine (IMI) 15 mg/kg i.p., read-out: t max (converted)", "result": 1, "unit": "h"},
      {"measurement": "AUC(0-t)", "setting": "[1]; [8]", "result": 0.0755, "unit": "µg·h/mL"},
      {"measurement": "CL/F", "setting": "[1]; [8]", "result": 62.3, "unit": "L/h/kg"},
      {"measurement": "Cmax", "setting": "[1]; [8]", "result": 0.0452, "unit": "µg/mL"},
      {"measurement": "MRT", "setting": "[1]; [8]", "result": 1.3, "unit": "h"},
      {"measurement": "Vd/F", "setting": "[1]; ip, 5 mg/kg, rat plasma, EMD386088 5 mg/kg i.p. alone, read-out: V d/F", "result": 97.1, "unit": "L/kg"},
      {"measurement": "half-life", "setting": "[1]; ip, 5 mg/kg, rat plasma, EMD386088 5 mg/kg i.p. alone, read-out: t1/2", "result": 1.08, "unit": "h"},
      {"measurement": "Tmax", "setting": "[1]; ip, 5 mg/kg, rat plasma, EMD386088 5 mg/kg i.p. alone, read-out: t max (converted)", "result": 0.0833, "unit": "h"},
      {"measurement": "half-life", "setting": "[1]; ip, 5 mg/kg, rats, EMD386088 alone (2.5 and 5 mg/kg) i.p., read-out: t 1/2 (terminal half-life)", "result": 1.12, "unit": "h"},
      {"measurement": "Tmax", "setting": "[1]; ip, 5 mg/kg, rats, EMD386088 alone (2.5 and 5 mg/kg) i.p., read-out: t max (time to maximum concentration in the blood) (converted)", "result": 0.0833, "unit": "h"},
      {"measurement": "Vd/F", "setting": "[1]; ip, rats, EMD386088 alone i.p., read-out: volume of distribution V d/F", "result": 102, "unit": "L/kg"},
      {"measurement": "change of area under the concentration-time curve (AUC) on coadministration with imipramine", "setting": "[1]; [9]", "result": "increased three times"},
      {"measurement": "change of volume of distribution on coadministration with imipramine", "setting": "[1]; [9]", "result": "decreased three times"},
      {"measurement": "Tmax", "setting": "[2]; ip, rat brain, EMD386088 2.5 mg/kg i.p. alone, read-out: t max (converted)", "result": 2, "unit": "h"},
      {"measurement": "Tmax", "setting": "[2]; ip, rat brain, EMD386088 5 mg/kg i.p. alone, read-out: t max (converted)", "result": 2, "unit": "h"},
      {"measurement": "AUC0 → t", "setting": "[2]; rat brain, EMD386088 2.5 mg/kg i.p. alone", "result": "41,936.2 ng ⋅ min/g"},
      {"measurement": "AUC0 → t", "setting": "[2]; [10]", "result": "56,428.6 ng ⋅ min/g"},
      {"measurement": "Tmax", "setting": "[2]; [10]", "result": 2, "unit": "h"},
      {"measurement": "AUC0 → t", "setting": "[2]; rat brain, EMD386088 5 mg/kg i.p. alone", "result": "84,462.8 ng ⋅ min/g"},
      {"measurement": "Cmax", "setting": "[2]; [11]", "result": 321, "unit": "ng/g"},
      {"measurement": "MRT", "setting": "[2]; [11]", "result": 1.9, "unit": "h"},
      {"measurement": "Cmax", "setting": "[2]; [12]", "result": 277, "unit": "ng/g"},
      {"measurement": "MRT", "setting": "[2]; [12]", "result": 2.12, "unit": "h"},
      {"measurement": "Cmax", "setting": "[2]; [13]", "result": 640, "unit": "ng/g"},
      {"measurement": "MRT", "setting": "[2]; [13]", "result": 1.91, "unit": "h"},
      {"measurement": "Kp", "setting": "[2]; rat, brain, ip, rats, EMD386088 2.5 mg/kg i.p. alone, calculated on the basis of AUC0 → t values, read-out: brain/plasma ratio", "result": "~19"},
      {"measurement": "Tmax", "setting": "[2]; rat, brain, ip, rats, after i.p. administration, read-out: t max in the brain (converted)", "result": 2, "unit": "h"},
      {"measurement": "decrease in penetration on coadministration with imipramine", "setting": "[2]; [9]", "result": 2.5, "unit": "fold"},
      {"measurement": "affinity for α1-adrenoceptors", "setting": "[3]", "result": "no affinity"},
      {"measurement": "affinity for GABAA", "setting": "[4]", "result": "no affinity"},
      {"measurement": "affinity for dopamine transporter (DAT)", "setting": "[5]", "result": "significant affinity"}
    ]}
  ]
}
